This is an account of results in patent US9826759B2, “Avenanthramide-enriched oat product” (THE QUAKER OATS COMPANY, priority 2014, dated 2017).

Assay [1] in a line: Oxygen Radical Absorbance Capacity (ORAC) assay, antioxidant activity. The format is biochemical. To be noted: individual avenanthramides. On the procedure: To test the effect of varying avenanthramide ratios on antioxidant activity and inflammation in vitro, the inventors created an avenanthramide ingredient from pure avenanthramides which had similar ratios of avenanthramides 2c:2p:2f as was present in each of the three different oat fractions: hulls, flour, and trichomes. Thereafter, antioxidant activity was measured using the ORAC assay and anti-inflammatory effect was measured using an NF-κB inhibitory assay.
The first avenanthramide ingredient was created from 2c:2p:2f having a ratio of about 1:1:1, which corresponded to the concentration present in oat hulls. The second avenanthramide ingredient had avenanthramides 2c:2p:2f having a ratio of about 1:1:2, which corresponded to the concentration present in oat flour. Finally, the last avenanthramide ingredient tested had 2c:2p:2f in a ratio of about 1:2:2, which corresponded to the concentration present in oat trichomes. An ORAC assay was used to measure the antioxidant activity of each of these avenanthramide ingredients and the results are presented in Table 1.

For assay [2] the following is noted: Peterson et al., 2001; cited from earlier work.

For `O=C(/C=C/c1ccc(O)c(O)c1)Nc1ccc(O)cc1C(=O)O` [Avenanthramide 2c, avenanthramide 2c], in assay [1], the ORAC is reported as 33741.00 A* TE/g. The “antioxidant activity in vitro” value in assay [2] is “highest antioxidant activity”.
Molecule `COc1cc(/C=C/C(=O)Nc2ccc(O)cc2C(=O)O)ccc1O` [Avenanthramide 2f, avenanthramide 2f] yielded an ORAC in assay [1] of 21812.67 B TE/g.
As for `O=C(/C=C/c1ccc(O)cc1)Nc1ccc(O)cc1C(=O)O` [Avenanthramide 2p, avenanthramide 2p], the ORAC in assay [1] is 18504.33 B TE/g.
